In US12441719B2, “Inhibitors of SARM1” (Disarm Therapeutics, Inc., priority 2019, dated 2025):
Like-named read-outs stand apart in the source and are kept apart here.

Target: T1, SARM1 (Homo sapiens, UniProt Q6SZW1)
T1 construct: AviTag […]; made in house; host or cells: NRK1-HEK293T cells, transiently transfected; the clarified sonicated lysate was used without purification
T1 sequence (Q6SZW1 with tags, fused parts or gaps): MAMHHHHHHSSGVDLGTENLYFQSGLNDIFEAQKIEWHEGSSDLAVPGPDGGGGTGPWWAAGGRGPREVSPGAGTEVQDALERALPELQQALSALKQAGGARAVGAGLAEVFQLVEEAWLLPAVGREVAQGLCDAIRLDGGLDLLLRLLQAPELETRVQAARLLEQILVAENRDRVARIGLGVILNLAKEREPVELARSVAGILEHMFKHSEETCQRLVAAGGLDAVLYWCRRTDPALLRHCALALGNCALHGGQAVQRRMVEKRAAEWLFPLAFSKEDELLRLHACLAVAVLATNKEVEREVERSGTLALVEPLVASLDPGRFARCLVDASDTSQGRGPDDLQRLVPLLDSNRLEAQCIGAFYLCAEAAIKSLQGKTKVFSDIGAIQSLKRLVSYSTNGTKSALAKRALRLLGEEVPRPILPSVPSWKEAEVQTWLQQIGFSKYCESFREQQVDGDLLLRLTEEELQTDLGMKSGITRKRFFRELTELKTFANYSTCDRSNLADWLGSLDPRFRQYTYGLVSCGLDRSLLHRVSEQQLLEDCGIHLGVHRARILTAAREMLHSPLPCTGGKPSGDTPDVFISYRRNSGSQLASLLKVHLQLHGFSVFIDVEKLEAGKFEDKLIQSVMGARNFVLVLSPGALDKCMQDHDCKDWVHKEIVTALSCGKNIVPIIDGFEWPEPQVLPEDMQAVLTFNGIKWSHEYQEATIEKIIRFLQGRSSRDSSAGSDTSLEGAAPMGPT
Assay: ARM-SAM-TIR SARM1 IC50 assay (NADase activity, NAD+ cleavage)
Assay type: biochemical
Source text: This Example describes an assay of ARM-SAM-TTR NADase activity and use of this assay to measure the efficacy of compounds of Formula I or Formula II to block SARM1 mediated NAD+ cleavage. This assay is optimized in such a way as to characterize the efficacy of the compounds in Formula I or Formula II to inhibit SARM1 activity and to calculate an IC50 value for each compound. This assay makes use of full length SARI, which encompasses the ARM, SAM and TTR domains.
Preparation of ARM-SAM-TIR Lysate (STL)
NRK1-HEK293T cells were seeded onto 150 cm^2 plates at 20×10^6 cells per plate. The next day, the cells were transfected with 15 μg ARM-SAM-TIR expression plasmid, SEQ ID NO: 1.
The cultures were supplemented with 1 mM NR at time of transfection to minimize toxicity from ARM-SAM-TIR overexpression. Forty-eight hours after transfection, cells were harvested, pelleted by centrifugation at 1,000 rpm (Sorvall ST 16R centrifuge, Thermo Fisher), and washed once with cold PBS (0.01 M phosphate buffered saline NaCl 0.138 M; KCl 0.0027 M; pH 7.4). The cells were resuspended in PBS with protease inhibitors (cOmplete™ protease inhibitor cocktail, Roche product #11873580001) and cell lysates were prepared by sonication (Branson Sonifer 450, output=3, 20 episodes of stroke). The lysates were centrifuged (12,000×g for 10 min at 4° C.) to remove cell debris and the supernatants (containing ARM-SAM-TIR protein) were stored at −80° C. for later use in the in vitro ARM-SAM-TIR NADase assay (see below). Protein concentration was determined by the Bicinchoninic (BCA) method and used to normalize lysate concentrations.
ARM-SAM-TIR IC50 Assay of Formula I or Formula II Compounds.
The enzymatic assay was performed in a 384-well polypropylene plate in Dulbecco's PBS buffer in a final assay volume of 20 μL. ARM-SAM-TIR lysate with a final concentration of 5 μg/mL was pre-incubated with the respective compound at 1% DMSO final assay concentration over 2 h at room temperature. The reaction was initiated by addition of 5 μM final assay concentration of NAD+ as substrate. After a 2 hr room temperature incubation, the reaction was terminated with 40 μL of stop solution of 7.5% trichloroactetic acid in acetonitrile. The NAD+ and ADPR concentrations were analyzed by a RapidFire High Throughput Mass Spectrometry System (Agilent Technologies, Santa Clara, CA) using an API4000 triple quadrupole mass spectrometer (AB Sciex Framingham, MA).

[1] = ARM-SAM-TIR lysate 5 μg/mL from NRK1-HEK293T cells, 2 h pre-incubation with compound, 5 μM NAD+, 2 hr room temperature, NAD+ and ADPR by RapidFire mass spectrometry, read-out: SARM1 IC50

| SMILES | IC50 [1] | IC50 |
| --- | --- | --- |
| C[C@@H]1CCC[C@H](C)N1c1cc(C#N)c2cc(Cl)ccc2n1 [Example 81] | < 5 µM | – |
| Cc1ccc2nc(N3CCC(N)CC3)cc(C#N)c2c1 [Example 17] | 5 to 15 µM | – |
| N#Cc1cc(N2CCC(NCCO)CC2)nc2ccc(Cl)cc12 [Example 1] | 5 to 15 µM | – |
| CC1(O)CCCN(c2cc(C#N)c3cc(Br)ccc3n2)C1 (stereo not drawn) [Example 97] | < 5 µM | – |
| CN(C)c1cc(C#N)c2cc(F)ccc2n1 [Example 25] | 5 to 15 µM | – |
| CS(=O)(=O)C1CCCN(c2cc(C#N)c3cc(Cl)ccc3n2)C1 (stereo not drawn) [Example 59] | < 5 µM | – |
| N#Cc1cc(N2CCC[C@H](NC(=O)c3ccncn3)C2)nc2ccc(Br)cc12 [Example 126] | < 5 µM | – |
| N#Cc1cc(N2CCC(C(=O)NCC3CC3)CC2)nc2ccc(Br)cc12 [Example 105] | 5 to 15 µM | – |
| C[C@@H]1CCC[C@H](C)N1c1cc(C#N)c2cc(C#N)ccc2n1 [Example 140] | < 5 µM | – |
| N#Cc1cc(-c2cccnc2)nc2ccc(Cl)cc12 [Example 87] | 15 to 30 µM | – |
| CN(C)C(=O)C1CCN(c2cc(C#N)c3cc(Cl)ccc3n2)C1 (stereo not drawn) [Example 69] | < 5 µM | – |
| CC1(NS(C)(=O)=O)CCN(c2cc(C#N)c3cc(Br)ccc3n2)CC1 [Example 118] | < 5 µM | – |
| N#Cc1cc(N2CCC[C@H](N3CCCC3=O)C2)nc2ccc(Br)cc12 [Example 109] | < 5 µM | – |
| CN(C)C(=O)NCCNc1cc(C#N)c2cc(Cl)ccc2n1 [Example 41] | 15 to 30 µM | – |
| N#Cc1cc(N2CCNCC2)nc2ccc(Cl)cc12 [Example 16] | – | > 30 µM |
| N#Cc1cc(N2CCCC(CCC(N)=O)C2)nc2ccc(Cl)cc12 (stereo not drawn) [Example 40] | < 5 µM | – |
| N#Cc1cc(N2CCCCC2C2CC2)nc2ccc(Cl)cc12 (stereo not drawn) [Example 98] | < 5 µM | – |
| N#Cc1cc(N2CCOCC2)nc2ccc(Cl)cc12 [Example 76] | < 5 µM | – |
| COCCNC(=O)CNc1cc(C#N)c2cc(Cl)ccc2n1 [Example 29] | 15 to 30 µM | – |
| N#Cc1cc(N2CCC[C@H](N)C2)nc2ccc(Cl)cc12 [Example 58] | < 5 µM | – |
| N#Cc1cc(N2CC[C@@H](N)C2)nc2ccc(Cl)cc12 [Example 65] | < 5 µM | – |
| N#Cc1cc(N2CCC[C@H](NCc3ccccc3)C2)nc2ccc(Br)cc12 [Example 107] | < 5 µM | – |
| N#Cc1cc(N2CCC(N)CC2)nc2ccc(F)cc12 [Example 23] | > 30 µM | – |

| SMILES | IC50 [1] | IC50 |
| --- | --- | --- |
| N#Cc1cc(N2CCC[C@@H](N)C2)nc2ccc(Cl)cc12 [Example 85] | 5 to 15 µM | – |
| Cn1ccnc1C1CCCN(c2cc(C#N)c3cc(Br)ccc3n2)C1 (stereo not drawn) [Example 151] | < 5 µM | – |
| N#Cc1cc(N)nc2ccc(Cl)cc12 [Example 70] | 15 to 30 µM | – |
| N#Cc1cc(N2CC3CC(C2)N3)nc2ccc(Cl)cc12 [Example 73] | – | < 5 µM |
| N#Cc1cc(N2CCCCC2)nc2ccc(Br)cc12 [Example 21] | < 5 µM | – |
| N#Cc1cc(Cl)nc2ccc(Cl)cc12 [Example 15] | > 30 µM | – |
| COCCNC(=O)[C@H]1CCCN(c2cc(C#N)c3cc(Br)ccc3n2)C1 [Example 102] | < 5 µM | – |
| N#Cc1cc(N2CC[C@H](O)C2)nc2ccc(Cl)cc12 [Example 12] | < 5 µM | – |
| COCCN(C)C(=O)C1CCN(c2cc(C#N)c3cc(Br)ccc3n2)CC1 [Example 123] | < 5 µM | – |
| CN1CCN(c2cc(C#N)c3cc(Cl)ccc3n2)CC1 [Example 52] | > 30 µM | – |
| N#Cc1cc(N2CCN(c3ncc[nH]3)CC2)nc2ccc(Cl)cc12 [Example 43] | 15 to 30 µM | – |
| N#Cc1cc(N2CCCC2)nc2cc(F)c(Cl)cc12 [Example 71] | < 5 µM | – |
| N#Cc1cc(N2CCC[C@H](NC(=O)c3c[nH]cn3)C2)nc2ccc(Br)cc12 [Example 136] | < 5 µM | – |
| CN(C)c1cc(C#N)c2ccc(Cl)cc2n1 [Example 27] | < 5 µM | – |
| CN(C)c1cc(C#N)c2cc(Br)ccc2n1 [Example 22] | < 5 µM | – |
| N#Cc1cc(N2CCC[C@H](NCC3CC3)C2)nc2ccc(Br)cc12 [Example 108] | < 5 µM | – |
| N#Cc1cc(NCC2CC2)nc2ccc(Cl)cc12 [Example 13] | < 5 µM | – |
| N#Cc1cc(N2CCC(C(=O)N3CCOCC3)CC2)nc2ccc(Br)cc12 [Example 104] | < 5 µM | – |
| N#Cc1cc(N2CCC[C@@H](C(=O)NCc3cnccn3)C2)nc2ccc(Br)cc12 [Example 141] | < 5 µM | – |
| N#Cc1cc(N2CCC(N)CC2)nc2ccc(Cl)cc12 [Example 3] | 5 to 15 µM | – |
| N#Cc1cc(NCc2ccccn2)nc2ccc(Cl)cc12 [Example 42] | < 5 µM | – |
| Cn1cc(C(=O)N[C@H]2CCCN(c3cc(C#N)c4cc(Br)ccc4n3)C2)cn1 [Example 128] | < 5 µM | – |
| CC(=O)NC1(C)CCN(c2cc(C#N)c3cc(Br)ccc3n2)CC1 [Example 114] | < 5 µM | – |

| SMILES | IC50 [1] | IC50 |
| --- | --- | --- |
| CN(Cc1ccccc1)C(=O)[C@H]1CCCN(c2cc(C#N)c3cc(Br)ccc3n2)C1 [Example 116] | < 5 µM | – |
| N#Cc1cc(N2CC(CO)C2)nc2ccc(Cl)cc12 [Example 34] | 5 to 15 µM | – |
| N#Cc1cc(N2CCC(N)CC2)nc2cc(Cl)ccc12 [Example 64] | < 5 µM | – |
| CNC(=O)C1CCN(c2cc(C#N)c3cc(Cl)ccc3n2)CC1 [Example 57] | < 5 µM | – |
| NC(=O)c1cc(N2CCC(NCCO)CC2)nc2ccc(Cl)cc12 [Example 6] | > 30 µM | – |
| OCCNC1CCN(c2ccc3cc(Cl)ccc3n2)CC1 [Example 2] | > 30 µM | – |
| C[C@@H]1CCC[C@H](C)N1c1cc(C#N)c2cc(Br)ccc2n1 [Example 96] | < 5 µM | – |
| CC(O)c1ccc2nc(N3[C@H](C)CCC[C@@H]3C)cc(C#N)c2c1 (stereo partly drawn) [Example 147] | < 5 µM | – |
| N#Cc1cc(N2CC[C@H](N)C(F)C2)nc2ccc(Br)cc12 (stereo partly drawn) [Example 99] | < 5 µM | – |
| C[C@@]1(NS(C)(=O)=O)CCCN(c2cc(C#N)c3cc(Br)ccc3n2)C1 [Example 122] | < 5 µM | – |
| N#Cc1cc(N2CCCCC2)nc2cc(F)c(Cl)cc12 [Example 89] | < 5 µM | – |
| C[C@@H]1CCCN(c2cc(C#N)c3cc(Cl)ccc3n2)C1 [Example 62] | < 5 µM | – |
| N#Cc1cc(N2CCCC23CCOC3)nc2ccc(Br)cc12 (stereo not drawn) [Example 145] | < 5 µM | – |
| CS(=O)(=O)N[C@H]1CCCN(c2cc(C#N)c3cc(Br)ccc3n2)C1 [Example 110] | < 5 µM | – |
| C#CCCC1(CCNC2CCN(c3cc(C#N)c4cc(Cl)ccc4n3)CC2)N=N1 [Example 88] | < 5 µM | – |
| N#Cc1cc(N2CCC[C@H](C(N)=O)C2)nc2ccc(Cl)cc12 [Example 78] | < 5 µM | – |
| COCCN(C)C(=O)[C@H]1CCCN(c2cc(C#N)c3cc(Br)ccc3n2)C1 [Example 112] | < 5 µM | – |
| CO[C@H]1CCCN(c2cc(C#N)c3cc(Cl)ccc3n2)C1 [Example 61] | < 5 µM | – |
| N#Cc1cc(N2CCC[C@H](NC(=O)N3CCS(=O)(=O)CC3)C2)nc2ccc(Br)cc12 [Example 138] | < 5 µM | – |
| CN1CCC(Nc2cc(C#N)c3cc(Cl)ccc3n2)C1=O (stereo not drawn) [Example 46] | < 5 µM | – |
| N#Cc1cc(NC(CCO)C2CCOCC2)nc2ccc(Cl)cc12 (stereo not drawn) [Example 33] | 5 to 15 µM | – |
| N#Cc1cc(N2CCC(NCCO)CC2)nc2ccccc12 [Example 8] | > 30 µM | – |
| N#Cc1cc(N2CCC[C@H](NC(=O)C3CC3)C2)nc2ccc(Br)cc12 [Example 106] | < 5 µM | – |
